Experimental data taken from patent publication US4438136A, “Prostaglandins” (National Research Development Corporation, priority 1979, dated 1984).

How the values were obtained:
Rabbit Aorta = molecular target: T1, Rabbit Aorta (Oryctolagus cuniculus, UniProt Q6WQI8); assay: Rabbit Aorta System: antagonism of contraction of aorta strips induced by 11,9-(epoxymethano) PGH2; assay type: cell-based; conditions: for Kb: read-out: AFFINITY CONSTANTS (KB) Rabbit Aorta (converted); for antagonist/agonist character in rabbit aorta strip test: in words
T1 construct: contraction by 11,9-(epoxymethano)PGH2 (U-46619)
T1 sequence (Q6WQI8 1-233): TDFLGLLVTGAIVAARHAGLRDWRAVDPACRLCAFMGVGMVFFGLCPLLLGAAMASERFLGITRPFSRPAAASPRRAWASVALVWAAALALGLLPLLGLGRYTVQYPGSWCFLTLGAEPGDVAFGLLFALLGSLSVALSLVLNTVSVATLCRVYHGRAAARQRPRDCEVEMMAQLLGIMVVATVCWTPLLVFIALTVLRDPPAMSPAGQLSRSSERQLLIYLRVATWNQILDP
From the text: (§1) It is believed that such inhibition is the result of the compounds being thromboxane antagonists and the activity of the compounds is for convenience hereinafter discussed in these terms. […] The related compounds described and claimed in our copending application Ser. No. 431,554 filed Sept. […] Structural features which tend to endow these compounds with a more pure antagonist form of activity are described in that application. It has been found, however, that the compounds of the present invention generally show little tendency to deviate from pure antagonist activity. Activity has also been observed on compounds according to the present invention on guinea pigs tracheal muscle.
(§2) Various of the compounds described in Examples 1 to 3 are tested for biological activity in the human platelet and rabbit aorta systems.
(§3) [B]=molar concentration of compound
Spiral strips of thoracic aorta are suspended in Kreb's-Henseleit solution and aerated with 95% O2 /5% CO2 at 37° C. Tension changes are recorded with a Grass FTO3 force transducer. Initially, cumulative dose response curves to 11,9-(epoxymethano) PGH2 (2×10^-9, 1×10^-8, 5×10^-8 and 2.5×10^-7 M) are obtained. In a second experiment the individual compounds are added 30 mins previous to the addition of the series of agonist doses. Affinity constants are calculated as above.

Human Platelets [1] = molecular target: T2, Human Platelets (Homo sapiens, UniProt P21731); assay: Human Platelet System: antagonism of platelet aggregation induced by 11,9-(epoxymethano) PGH2; assay type: cell-based; conditions: for Kb: vs 11,9-epoxymethano PGH2 (1×10^-7 to 5×10^-7 M), compound added 5 minutes before, Gaddum-Schild, read-out: AFFINITY CONSTANTS (KB) Human Platelets (converted); for inhibition of aggregatory activity of 11,9-(epoxymethano) PGH2 / antagonism in platelet test: human platelets in vitro, in words
T2 construct: Platelet-rich plasma is obtained from fresh, citrated human blood; endogenous in cells; host or cells: human platelets (platelet-rich plasma from citrated blood)
T2 sequence (P21731 1-343): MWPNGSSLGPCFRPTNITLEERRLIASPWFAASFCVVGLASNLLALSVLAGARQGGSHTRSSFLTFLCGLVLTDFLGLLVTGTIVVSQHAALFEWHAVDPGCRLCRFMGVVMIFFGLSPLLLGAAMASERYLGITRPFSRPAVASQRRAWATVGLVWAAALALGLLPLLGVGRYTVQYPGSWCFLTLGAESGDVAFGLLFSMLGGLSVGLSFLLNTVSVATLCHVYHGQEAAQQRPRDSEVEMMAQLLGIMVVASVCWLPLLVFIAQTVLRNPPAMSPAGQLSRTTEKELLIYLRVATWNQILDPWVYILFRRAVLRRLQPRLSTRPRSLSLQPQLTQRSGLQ
From the text: as §1, §2
Platelet-rich plasma is obtained from fresh, citrated human blood. Addition of the 11,9-epoxymethano analogue of PGH2 (1×10^-7 to 5×10^-7 M) causes immediate aggregation recorded as an increase in light transmission (600 nm). In a second experiment the individual compounds are added 5 minutes previously to addition of the PGH2 analogue. The dose of the PGH2 analogue added is then increased to a level which gives a similar response to that obtained in the absence of antogonist. The affinity constant, KB, for the compound is calculated according to the Gaddum-Schild Equation (based on Law of Mass Action).
as §3

Human Platelets [2] = assay: Antagonism of ADP aggregatory action on platelets; assay type: cell-based
α-adrenoceptors = assay: Block of contractile action of noradrenaline (α-adrenoceptors); assay type: cell-based, rabbit; conditions: in words
platelet = assay: Block of aggregatory action of arachidonic acid on platelets; assay type: cell-based, human; conditions: in words
[3] = vs 11,9-(epoxymethano) PGH2, compound added 30 mins before, Gaddum-Schild

Compound | Kb (Human Platelets [1]) [µM] | Kb (Rabbit Aorta; [3]) [µM] | further results
CN(C)c1ccc(C(=O)NN=C[C@H]2[C@@H]3CC[C@@H](C3)[C@@H]2C/C=C\CCCC(=O)O)cc1 (relative stereo) | 10 | – | AFFINITY CONSTANTS (KB) Rabbit Aorta (Rabbit Aorta; [3]): < 2.5e-05 L/mol
COc1ccc(C(=O)NN=C[C@H]2[C@@H]3CC[C@@H](C3)[C@@H]2C/C=C\CCCC(=O)O)cc1 (relative stereo) | – | 5 | –
O=C(O)CCC/C=C\C[C@H]1[C@H]2CC[C@H](C2)[C@@H]1C=NNC(=O)Cc1ccccc1 (relative stereo) | – | 1.49 | –
O=C(O)CCC/C=C\C[C@H]1[C@H]2CC[C@H](C2)[C@@H]1C=NNC(=O)C(c1ccccc1)c1ccccc1 (relative stereo) | 1.39 | 0.256 | Kb (Human Platelets [2]; antagonism of ADP, table head gives liters/mole, 5 min): 8.33 µM; antagonism of ADP (Human Platelets [2]; in words): Slight antagonism of ADP
O=C(O)CCC/C=C\C[C@H]1[C@H]2CC[C@H](C2)[C@@H]1C=NNC(=O)CC(c1ccccc1)c1ccccc1 (relative stereo) | 0.5 | 1.52 | –
O=C(O)CCC/C=C\C[C@H]1[C@H]2CC[C@H](C2)[C@@H]1C=NNC(=O)COc1ccccc1 (relative stereo) | 19.2 | 2.7 | –
O=C(O)CCCCCC[C@H]1[C@H]2CC[C@H](C2)[C@@H]1C=NNC(=O)Nc1ccccc1 (relative stereo) | 1.45 | 1.2 | –
O=C(O)CCC/C=C\C[C@H]1[C@H]2CC[C@H](C2)[C@@H]1C=NNC(=O)c1ccc(F)cc1 (relative stereo) [Example 1, 5-endo-(6'-Caboxyhex-2'Z-enyl)-6-exo-(N-p-fluorobenzoylhydrazonomethyl)-bicyclo[2,2,1]heptane] | – | – | antagonist/agonist character in rabbit aorta strip test (Rabbit Aorta): pure antagonists in the rabbit aorta strip test; inhibition of aggregatory activity of 11,9-(epoxymethano) PGH2 / antagonism in platelet test (Human Platelets [1]): antagonists in the platelet test; block of contractile action of noradrenaline (α-adrenoceptors): do not block the contractile action of noradrenaline; block of aggregatory action of arachidonic acid (platelet): block the aggregatory action of archidonic acid
O=C(O)CCC/C=C\C[C@H]1[C@H]2CC[C@H](C2)[C@@H]1C=NNC(=O)Nc1ccccc1 (relative stereo) [Example 3, 5-endo-(6'-carboxyhex-2'Z-enyl)-6-exo-[N-(phenylcarbamoyl)-hydrazonomethyl]-bicyclo[2,2,1]heptane] | – | – | antagonist/agonist character in rabbit aorta strip test (Rabbit Aorta): pure antagonists in the rabbit aorta strip test; inhibition of aggregatory activity of 11,9-(epoxymethano) PGH2 / antagonism in platelet test (Human Platelets [1]): antagonists in the platelet test; block of contractile action of noradrenaline (α-adrenoceptors): do not block the contractile action of noradrenaline; block of aggregatory action of arachidonic acid (platelet): block the aggregatory action of archidonic acid
O=C(O)CCC/C=C\C[C@H]1[C@H]2CC[C@H](C2)[C@@H]1C=NNC(=O)c1ccc(F)cc1 (relative stereo) [drawing 24] | 4.76 | 1.28 | –
O=C(O)CCC/C=C\C[C@H]1[C@H]2CC[C@H](C2)[C@@H]1C=NNC(=O)Nc1ccccc1 (relative stereo) [drawing 31] | 1.43 | 0.769 | –
